Results: ChEMBL document CHEMBL1201862, “PubChem BioAssay data set” (2004)
Values joined by “and” are separate entries in the source; they are usually repeats but may differ in a detail not shown here. Equal entries are not always repeated.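 Exposure lasted 48 hours, with cells grown in 96-well plates and compounds tested at five concentrations. Here, GI50 denotes the concentration required for 50% inhibition of growth.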 Active and inactive are the calls of the source. Cut-off read from the data, not from the text of the source: active = GI50 up to about 1.1 µM and inactive = higher.

How the values were obtained:
Assay in all cases: NCI anticancer screen, dose series, 48 h
A498 = test system: A498
A549 = test system: A549
ACHN = test system: ACHN
CAKI-1 = test system: CAKI-1
COLO 205 = test system: COLO 205
DU-145 = test system: DU-145
EKVX = test system: EKVX
HCT-116 = test system: HCT-116
HCT-15 = test system: HCT-15
HOP-92 = test system: HOP-92
HT-29 = test system: HT-29
IGROV-1 = test system: IGROV-1
KM12 = test system: KM12
M14 = test system: M14
MDA-MB-231 = test system: MDA-MB-231
MDA-MB-435 = test system: MDA-MB-435
MDA-N = test system: MDA-N
NCI-H226 = test system: NCI-H226
NCI-H23 = test system: NCI-H23
NCI/ADR-RES = test system: NCI/ADR-RES
OVCAR-3 = test system: OVCAR-3
OVCAR-4 = test system: OVCAR-4
OVCAR-5 = test system: OVCAR-5
OVCAR-8 = test system: OVCAR-8
PC-3 = test system: PC-3
RXF 393 = test system: RXF 393
SF-268 = test system: SF-268
SF-295 = test system: SF-295
SF-539 = test system: SF-539
SK-MEL-28 = test system: SK-MEL-28
SK-MEL-5 = test system: SK-MEL-5
SN12C = test system: SN12C
SNB-19 = test system: SNB-19
SNB-75 = test system: SNB-75
SW-620 = test system: SW-620
TK-10 = test system: TK-10
U-251 = test system: U-251
UO-31 = test system: UO-31
RPMI-8226 = test system: RPMI-8226
786-0 = test system: 786-0
CCRF-CEM = test system: CCRF-CEM
HCC 2998 = test system: HCC 2998
HOP-62 = test system: HOP-62
K562 = test system: K562
LOX IMVI = test system: LOX IMVI
MCF7 = test system: MCF7
MOLT-4 = test system: MOLT-4
Malme-3M = test system: Malme-3M
NCI-H460 = test system: NCI-H460
NCI-H522 = test system: NCI-H522
SK-MEL-2 = test system: SK-MEL-2
SK-OV-3 = test system: SK-OV-3
SR = test system: SR
T47D = test system: T47D
UACC-257 = test system: UACC-257
UACC-62 = test system: UACC-62
HL-60 = test system: HL-60

## CSc1ccc(C(=C=C=C(c2ccc(SC)s2)c2ccc(SC)s2)c2ccc(SC)s2)s1
A498
  GI50: > 10 µM (inactive)
A549
  GI50: > 10 µM (inactive)
ACHN
  GI50: > 10 µM (inactive)
CAKI-1
  GI50: > 10 µM (inactive)
COLO 205
  GI50: > 10 µM (inactive)
DU-145
  GI50: > 10 µM (inactive)
EKVX
  GI50: > 10 µM (inactive)
HCT-116
  GI50: > 10 µM (inactive)
HCT-15
  GI50: > 10 µM
HOP-92
  GI50: > 10 µM (inactive)
HT-29
  GI50: > 10 µM (inactive)
IGROV-1
  GI50: > 10 µM (inactive)
KM12
  GI50: > 10 µM (inactive)
M14
  GI50: > 10 µM (inactive)
MDA-MB-231
  GI50: > 10 µM (inactive)
MDA-MB-435
  GI50: > 10 µM (inactive)
MDA-N
  GI50: > 10 µM (inactive)
NCI-H226
  GI50: > 10 µM (inactive)
NCI-H23
  GI50: > 10 µM (inactive)
NCI/ADR-RES
  GI50: > 10 µM (inactive)
OVCAR-3
  GI50: > 10 µM (inactive)
OVCAR-4
  GI50: > 10 µM (inactive)
OVCAR-5
  GI50: > 10 µM (inactive)
OVCAR-8
  GI50: > 10 µM (inactive)
PC-3
  GI50: > 10 µM (inactive)
RXF 393
  GI50: > 10 µM (inactive)
SF-268
  GI50: > 10 µM (inactive)
SF-295
  GI50: > 10 µM (inactive)
SF-539
  GI50: > 10 µM (inactive)
SK-MEL-28
  GI50: > 10 µM (inactive)
SK-MEL-5
  GI50: > 10 µM (inactive)
SN12C
  GI50: > 10 µM (inactive)
SNB-19
  GI50: > 10 µM (inactive)
SNB-75
  GI50: > 10 µM (inactive)
SW-620
  GI50: > 10 µM (inactive)
TK-10
  GI50: > 10 µM (inactive)
U-251
  GI50: > 10 µM (inactive)
UO-31
  GI50: > 10 µM (inactive)

## O=C(c1ccc(Cl)c(Cl)c1)N1CCN(C(=O)c2ccc(Cl)c(Cl)c2)C1=S
RPMI-8226
  GI50: 1.83 µM (inactive)

## Clc1ccc2[nH]c(CC3CCCC3)nc2c1
786-0
  GI50: 16.6 µM (inactive)
A549
  GI50: 21.7 µM (inactive)
ACHN
  GI50: 17.1 µM (inactive)
CAKI-1
  GI50: 3.31 µM (inactive)
CCRF-CEM
  GI50: 26.2 µM (inactive)
COLO 205
  GI50: 14.2 µM (inactive)
DU-145
  GI50: 20.9 µM (inactive)
EKVX
  GI50: 17.5 µM (inactive)
HCC 2998
  GI50: 20 µM (inactive)
HCT-116
  GI50: 16.1 µM (inactive)
HCT-15
  GI50: 6.87 µM
HOP-62
  GI50: 15.6 µM (inactive)
HOP-92
  GI50: 12.9 µM (inactive)
HT-29
  GI50: 12.2 µM (inactive)
IGROV-1
  GI50: 4.29 µM (inactive)
K562
  GI50: 3.14 µM (inactive)
KM12
  GI50: 14.5 µM (inactive)
LOX IMVI
  GI50: 15.8 µM (inactive)
M14
  GI50: 18.3 µM (inactive)
MCF7
  GI50: 6.61 µM (inactive)
MDA-MB-231
  GI50: 17.7 µM (inactive)
MDA-MB-435
  GI50: 6.52 µM (inactive)
MDA-N
  GI50: 10 µM (inactive)
MOLT-4
  GI50: 11 µM (inactive)
Malme-3M
  GI50: 25.5 µM (inactive)
NCI-H226
  GI50: 17.7 µM (inactive)
NCI-H23
  GI50: 15.1 µM (inactive)
NCI-H460
  GI50: 17.6 µM (inactive)
NCI-H522
  GI50: 5.74 µM (inactive)
NCI/ADR-RES
  GI50: 13.8 µM (inactive)
OVCAR-3
  GI50: 6 µM (inactive)
OVCAR-4
  GI50: 14.9 µM (inactive)
OVCAR-5
  GI50: 24.5 µM (inactive)
OVCAR-8
  GI50: 25.6 µM (inactive)
PC-3
  GI50: 20.1 µM (inactive)
RPMI-8226
  GI50: 12.1 µM (inactive)
RXF 393
  GI50: 14.7 µM (inactive)
SF-268
  GI50: 19.3 µM (inactive)
SF-295
  GI50: 16.1 µM (inactive)
SF-539
  GI50: 21.4 µM (inactive)
SK-MEL-28
  GI50: 22.8 µM (inactive)
SK-MEL-2
  GI50: 17.9 µM (inactive)
SK-MEL-5
  GI50: 11 µM (inactive)
SK-OV-3
  GI50: 22.3 µM (inactive)
SN12C
  GI50: 16.9 µM (inactive)
SNB-19
  GI50: 23.4 µM (inactive)
SNB-75
  GI50: 24.4 µM (inactive)
SR
  GI50: 2.45 µM (inactive)
SW-620
  GI50: 22.4 µM (inactive)
T47D
  GI50: 17.9 µM (inactive)
TK-10
  GI50: 28.5 µM (inactive)
U-251
  GI50: 17.6 µM (inactive)
UACC-257
  GI50: 88.1 µM (inactive)
UACC-62
  GI50: 15.8 µM (inactive)

## O=C1C=C2C=CC3CC2(O1)C1CCCCN31 (centres undefined)
HCC 2998
  GI50: 16.8 µM (inactive) and 20.3 µM (inactive) and 27.3 µM (inactive)
HL-60
  GI50: 17.2 µM (inactive)
HOP-92
  GI50: 12.7 µM (inactive) and 18.3 µM (inactive) and 22.8 µM (inactive)
KM12
  GI50: 19.2 µM (inactive) and 14.8 µM (inactive) and 12.5 µM (inactive)
Malme-3M
  GI50: 14.9 µM (inactive)
OVCAR-8
  GI50: 17.3 µM (inactive) and 28.3 µM (inactive) and 19.1 µM (inactive)
PC-3
  GI50: 21.5 µM (inactive) and 40.4 µM (inactive) and 25.1 µM (inactive)
SF-295
  GI50: 23.3 µM (inactive) and 35.3 µM (inactive) and 45.2 µM (inactive)
SK-MEL-2
  GI50: 28.1 µM (inactive) and 16.8 µM (inactive) and 27.9 µM (inactive)
SK-OV-3
  GI50: 20.5 µM (inactive) and 33.7 µM (inactive) and 30.6 µM (inactive)
SNB-19
  GI50: 28.3 µM (inactive) and 32.4 µM (inactive) and 18.7 µM (inactive)
